Data taken from US4624956A, “Ulcer and gastric secretion inhibiting 4,5,6,7-tetrahydrothiazole[5,4-c]pyridine derivatives” (priority 1983, dated 1986).
Counter-ions that a name gives are not always drawn.

Experiments:
[1] = tested on: oxotremorine syndrome in the mouse; settings: for Anticholinergic activ. (antagonism against oxotremorine syndrome): in vivo, po, 100 mg/kg
Description: (§1) Considering that some anti-ulcer agents display, as does atropine, a remarkable but undesired anticholinergic activity, the compound of the present invention was also assessed for its antagonism against the syndrome induced by intraperitoneally (i.p.) administered oxotremorine in mice, according to the method described by G. P. Leszkovsky and L. Tardos (Europ. J. Pharmac. 1971, 15, 310). Given test compound embodiments were administered to groups of 5 male mice, 20-25 g body weight, at the screening dose of 100 mg/kg per os. The degree of peripheral cholinergic activation induced by oxotremorine was measured b salivation and lachrymation, and the degree of central cholinergic activation by the severity of tremors and hypothermia. […] The approximate acute toxicity (LD50) of the compounds of the invention was determined in the mouse and in the rat by single oral administration of increasing doses and measured on the seventh day after treatment. […] Ranitidine, the well known anti-ulcer agent, was used as comparison compound.

[2] = tested on: ASA induced gastric ulcers in rats; assay: inhibition of acetyl salicyclic acid (ASA) induced gastric ulcers in rats; format: in vivo, rat (male Sprague Dawley); settings: po, 4 h, rat, p.o. 60 min before ASA 100 mg/kg, dose reducing ulcer index by 50%
Description: The anti-ulcerogenic activity of the present compound is shown, for example, by the fact that embodiments of the present compound are active in the test of inhibition of acetyl salicyclic acid (ASA) induced gastric ulcers in rats as described by M. Hemmati et al in Pharmacology, 9, 374, 1973. Male Sprague Dawley rats [Crl: CD (SD) BR] (Charles River Italy) weighing 190±10 g, which had fasted for 15 hours, but given free access to water, were administered ASA (100 mg/kg per os in 0.2 ml/100 g b.w.) 60 minutes after the oral treatment with the tested compounds. Gastric ulcerations were evaluated 4 hours after ASA treatment. The inhibition of gastric ulcerations, evaluated as percentage inhibition of ulcer index (sum of ulcer length in millimeters), was expressed as ED50 (dose which reduces gastric ulcerations by 50% in comparison with control rats).

[3] = tested on: gastric ulcers induced in rats by stress; assay: inhibition of stress ulcers in rats (restraint in water at 23° C. for 4 hours); format: in vivo, rat (Charles River male); settings: po, rat, p.o. one hour before stress, number of ulcers
Description: The anti-ulcerogenic activity of the compound of the present invention is shown also by the fact that embodiments of the same are active in the test of inhibition of stress ulcers in rats (restraint in water at 23° C. for 4 hours), according to the method of M. Usardi et al. (Prostaglandins, 8, 43, 1974). The tested compounds were administered per os one hour before the stress. Six Charles River male rats (140±10 g body weight), which had fasted for 16 hours, were used for each experimental group. At the end of the stress, the rats were killed and the gastric ulcers evaluated by counting them. The inhibition of gastric ulcerations, evaluated as percentage inhibition of ulcer index (number of ulcers), was expressed as ED50.

[4] = tested on: basal gastric secretion output HCl; assay: gastric anti-secretory activity in rats, pylorus ligature technique; format: in vivo, rat (Sprague-Dawley male); settings: Column 4, rat, intraduodenal (i.d.), 4 hours, read-out: Antisecretory activ.: inhibition of basal gastric secretion output HCl (ED50)
Description: The gastric anti-secretory activity of the compound of the present invention was evaluated in rats by the pylorus ligature technique (H. Shay et al, Gastroenterology 5, 43 1945). Six Sprague-Dawley male rats (110-130 g body weight) for each group were used. Twenty-four hours before the test, the rats were deprived of food while water was maintained. On the day of operation, the pylorus was ligated under light ether anaesthesia. Four hours after the ligature the rats were sacrificed, the stomach secretion collected, centrifuged at 3500 r.p.m. for 10 minutes and the volume, less sediment, was determined. The amount of free hydrochloric acid in the gastric juice was determined by titration against 0.1N sodium hydroxide to an end point of pH 7. All the compounds were injected intraduodenally at the time of ligature. The results, expressed as ED50 mg/kg (the dose which reduced the output of hydrochloride acid by 50% in comparison with control rats) are reported in column 4 of Table 1.

[5] = approximate acute toxicity (LD50) in the mouse, single oral administration; settings: in vivo
Description: as §1

[6] = target: T1, histamine H2-receptor (Cavia porcellus, UniProt P47747); assay: histamine H2-receptor antagonist activity in vitro on the guinea pig right atrium; settings: Column 5; guinea pig atria in vitro; screening dose 1 × 10^-5 M; 'More active' continues 'than Ranitid.'; active if it shifts histamine curve right at ≤1×10^-5 M
T1 construct: histamine-induced rate increase
T1 sequence (P47747 whole entry): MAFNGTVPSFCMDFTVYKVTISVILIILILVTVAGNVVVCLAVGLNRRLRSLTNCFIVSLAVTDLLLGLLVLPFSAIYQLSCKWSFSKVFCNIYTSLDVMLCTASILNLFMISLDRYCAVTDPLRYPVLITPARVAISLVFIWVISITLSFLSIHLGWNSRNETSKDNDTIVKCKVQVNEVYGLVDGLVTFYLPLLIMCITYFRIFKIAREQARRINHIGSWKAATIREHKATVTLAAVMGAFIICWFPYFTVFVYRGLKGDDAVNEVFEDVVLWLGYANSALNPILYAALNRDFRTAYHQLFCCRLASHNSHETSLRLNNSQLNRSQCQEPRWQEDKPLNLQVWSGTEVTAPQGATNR
Description: The compound of the present invention was assayed for histamine H2 -receptor antagonist activity in vitro on the guinea pig right atrium. Male guinea pigs were killed by a blow on the head and the heart was quickly excised and placed in oxygenated Ringer Lock solution of the following composition (g/l): NaCl 9, KCl 0.42, CaCl2 0.24, NaHCO3 0.5, Glucose 1. Atria were dissected away from the rest of the heart, freed from connective tissue, suspended in a 20 ml organ bath containing Ringer Locke solution thermoregulated at 37° C., and carboxygenated with 95% O2 and 5% CO2. Atria spontaneously beating were allowed to adjust to the bath conditions for at least 30 minutes prior to the experiment. Histamine was added to the bath in cumulative fashion starting from 3×10^-7 M to 1×10^-4 M. The histamine-induced increase in atrial rate was allowed to plateau before the next successive concentration was added. After washing and waiting for the recovery of atria rate, a compound was added 5 minutes before repeating the cumulative dose response curve with histamine. A compound is considered an H2 -receptor antagonist if it is able to shift the dose response curve of histamine to the right at a concentration ≤1×10^-5 M. The results are reported in column 5 of Table 1.

[7] = approximate acute toxicity (LD50) in the rat, single oral administration; settings: in vivo
Description: as §1

[8] = tested on: duodenal ulcers induced in rats by cysteamine; assay: inhibition of duodenal ulcers induced in rats by cysteamine; format: in vivo; settings: po, rat
Description: The inhibition of duodenal ulcers, induced in rats by cysteamine, was evaluated for the tested compounds as percentage inhibition of ulcer index [sum of the lesioned areas per rat (mm^2)] according to the method of Fujii Y. et al, Jap. J. Pharm. 25, 663, 1975, and expressed as ED50.

CN1[C@@H]2CC[C@H]1C[C@@H](OC(=O)C(CO)c1ccccc1)C2 (stereo partly shown) [Atropine sulfate, reference compound]
peripheral and central effects induced by oxotremorine ([1]; oxotremorine i.p., dose of atropine sulfate not given): suppressed both peripheral and central effects

CC(C)NC(=S)N1CCc2nc(N)sc2C1 [Example 2, 2-Amino-5-(isopropyl-thiocarbamoyl)-4,5,6,7-tetrahydrothiazolo[5,4-c]pyridine]
Anticholinergic activ. (antagonism against oxotremorine syndrome) [1]: Inactive
ED50 [2]: ~5 mg/kg
ED50 [3]: 2.7 mg/kg
ED50 [4]: 1 mg/kg
LD50 at 168 h [5]: 400 to 800 mg/kg

CNC(=O)N1CCc2nc(N)sc2C1 [Example 5, 2-Amino-5-(methyl-carbamoyl)-4,5,6,7-tetrahydrothiazolo[5,4-c]pyridine]
Anticholinergic activ. (antagonism against oxotremorine syndrome) [1]: Inactive
ED50 [2]: 1.2 mg/kg
ED50 [3]: > 25 mg/kg
ED50 [4]: > 5 mg/kg
LD50 at 168 h [5]: 200 to 400 mg/kg

CC(C)NC(=S)N1CCc2nc(NC(=N)N)sc2C1 [Example 15, 2-Guanidino-5-(isopropyl-thiocarbamoyl)-4,5,6,7-tetrahydrothiazolo[5,4-c]pyridine]
Anticholinergic activ. (antagonism against oxotremorine syndrome) [1]: Inactive
ED50 [2]: 0.5 mg/kg
ED50 [3]: < 50 mg/kg
ED50 [4]: < 5 mg/kg
Anti-H2 activ. [6]: Active
LD50 at 168 h [5]: 400 to 800 mg/kg

CC(C)NC(=O)N1CCc2nc(NC(=N)N)sc2C1 [Example 16, 2-Guanidino-5-(isopropyl-carbamoyl)-4,5,6,7-tetrahydrothiazolo[5,4-c]pyridine]
Anticholinergic activ. (antagonism against oxotremorine syndrome) [1]: Inactive
ED50 [2]: 0.017 mg/kg
LD50 at 168 h [7]: > 800 mg/kg
ED50 [3]: 2.9 mg/kg
ED50 [4]: 0.33 mg/kg
ED50 [8]: 0.4 mg/kg
Anti-H2 activ. [6]: More active
LD50 at 168 h [5]: 200 to 400 mg/kg

N=C(N)Nc1nc2c(s1)CN(C(=O)NC1CC1)CC2 [Example 22, 2-Guanidino-5-(cyclopropyl-carbamoyl)-4,5,6,7-tetrahydrothiazolo[5,4,-c]pyridine]
Anticholinergic activ. (antagonism against oxotremorine syndrome) [1]: Inactive
ED50 [2]: 0.08 mg/kg
LD50 at 168 h [7]: > 800 mg/kg
ED50 [3]: 20.2 mg/kg
ED50 [4]: 1.7 mg/kg
ED50 [8]: 0.3 mg/kg
Anti-H2 activ. [6]: More active
LD50 at 168 h [5]: > 800 mg/kg

CNC(=C[N+](=O)[O-])NCCSCc1ccc(CN(C)C)o1 [Ranitidine, reference compound]
Anticholinergic activ. (antagonism against oxotremorine syndrome) [1]: Inactive
ED50 [2]: 0.5 mg/kg
LD50 at 168 h [7]: > 800 mg/kg
ED50 [3]: 6.2 mg/kg
ED50 [4]: 7 mg/kg
ED50 [8]: 10.7 mg/kg
LD50 at 168 h [5]: > 800 mg/kg
